Here are results for twelve compounds from patent US10407422B2, “Triazolopyridine inhibitors of myeloperoxidase” (priority 2015, dated 2019).

Assay [1] addresses T1, myeloperoxidase (MPO) (Homo sapiens (Human), UniProt P05164). Kind of assay: MPO peroxidation assay (Amplex Red assay). Format: biochemical. To be noted: potency range class. Here is the method:
MPO Peroxidation Assay (Amplex Red Assay) MPO peroxidation activity was measured in 100 mM KPi (pH 7.4) by utilizing the non-fluorescent reagent Amplex Red (Invitrogen Cat. #A12222) which can be oxidized to the highly fluorescent resorufin. Amplex Red is oxidized by the peroxidase action of MPO to resorufin. Reactions were carried out in 50 μL total volume by adding a 25 μL mixture of 200 pM myeloperoxidase and 40 nM H2O2(Sigma #349887) to 100 nL inhibitor in 100% DMSO in a 384 well Perkin Elmer Optiplate. Enzyme and compound were preincubated for ten minutes at room temperature. After the ten minute preincubation, 25 μL of an Amplex Red mixture containing 200 μM Amplex Red and 10 mM H2O2 was added to the plate. Kinetic determinations were carried out immediately on a Perkin Elmer Envision (15 minute kinetic read, Ex: 535 nm, Em: 590 nm). IC50 values were calculated by determining the slope of the linear portion of the kinetic trace (180-540 secs), and using that calculated slope to determine % inhibition occurring at each concentration of inhibitor using the following equation: [formula] where A=minimal Y value (activity level of inhibited sample), B=maximal Y value (activity level of uninhibited sample), C=Log IC50, D=Hill Slope, x=concentration of inhibitor. MPO Chlorination Assay (APF Assay)

For assay [2], the target named is T1, myeloperoxidase (MPO). The assay can be described thus: MPO chlorination assay (APF assay). Format: biochemical. To be noted: potency range class. Here is the method: [formula] where A=minimal Y value (activity level of inhibited sample), B=maximal Y value (activity level of uninhibited sample), C=Log IC50, D=Hill Slope, x=concentration of inhibitor. MPO Chlorination Assay (APF Assay) MPO chlorination activity was measured in 100 mM KPi (pH 7.4) by utilizing the non-fluorescent reagent Aminophenyl fluorescein (APF, Invitrogen Cat. #A36003). APF is cleaved by (—OCl) to yield the fluorescent compound fluorescein. Reactions were carried out in 50 μL total volume by adding a 25 μL mixture of 200 pM myeloperoxidase and 120 mM NaCl to 100 nL inhibitor in 100% DMSO in a 384 well, non-binding surface clear bottom plate (Corning #3655). Enzyme, inhibitor, and chloride were preincubated for ten minutes at room temperature. After the ten minute preincubation, 25 μL of an APF mixture containing […], 120 mM NaCl and 10 μM H2O2 was added to the plate using the internal dispensing system of a Hammatsu FDSS 6000. Kinetic determinations were carried out immediately on the FDSS 6000 (3 minute kinetic read, 1 read every second, ex: 485 nm, em: 535 nm). IC50 values for inhibitors were calculated by taking the slope of the linear portion of the kinetic measurement (20 seconds to ˜80-120 secs). IC50 values were calculated by determining the slope of the linear portion of the kinetic trace […], and using that calculated slope to determine % inhibition occurring at each concentration of inhibitor using the following equation: [formula] where A=minimal Y value (activity level of inhibited sample), B=maximal Y value (activity level of uninhibited sample), C=Log IC50, D=Hill Slope, x=concentration of inhibitor. EPX Bromination Assay

T1 sequence (P05164 49-745): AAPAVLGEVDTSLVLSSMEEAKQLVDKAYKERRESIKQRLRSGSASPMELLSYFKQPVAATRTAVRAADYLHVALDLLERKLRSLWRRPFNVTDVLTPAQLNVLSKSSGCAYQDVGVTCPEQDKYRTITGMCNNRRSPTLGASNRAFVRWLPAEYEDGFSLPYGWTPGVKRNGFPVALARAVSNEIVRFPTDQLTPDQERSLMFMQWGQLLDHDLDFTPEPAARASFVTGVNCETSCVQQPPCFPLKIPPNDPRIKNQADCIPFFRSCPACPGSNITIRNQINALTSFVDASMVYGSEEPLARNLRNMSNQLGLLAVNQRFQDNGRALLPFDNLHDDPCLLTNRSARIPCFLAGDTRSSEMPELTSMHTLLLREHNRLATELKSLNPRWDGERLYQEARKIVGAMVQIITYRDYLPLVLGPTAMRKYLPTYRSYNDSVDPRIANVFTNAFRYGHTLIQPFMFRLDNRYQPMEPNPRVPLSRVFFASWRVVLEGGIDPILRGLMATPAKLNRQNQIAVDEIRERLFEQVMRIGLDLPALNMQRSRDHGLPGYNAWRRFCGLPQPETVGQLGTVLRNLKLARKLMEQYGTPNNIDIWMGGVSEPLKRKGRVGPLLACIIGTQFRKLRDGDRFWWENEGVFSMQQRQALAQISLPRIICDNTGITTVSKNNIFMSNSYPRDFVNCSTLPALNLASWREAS

Regarding `Nc1cc(Cc2cnn(Cc3cccc(C4(O)CCNCC4F)c3)c2)c2nn[nH]c2n1` (stereo not drawn) [Example 213, 4-(3-{[4-({5-Amino-3H-[1,2,3]triazolo[4,5-b]pyridin-7-yl}methyl)-1H-pyrazol-1-yl]methyl}phenyl)-3-fluoropiperidin-4-ol], the IC50 in assay [1] fell in the range of 0.001 to 0.1 µM; in assay [2], 0.101 to 0.999 µM.

On to `Nc1cc(Cc2cnn(Cc3cccc(CN4CCCC4)c3)c2)c2nn[nH]c2n1` [Example 254, 7-[(1-{[3-(Pyrrolidin-1-ylmethyl)phenyl]methyl}-1H-pyrazol-4-yl)methyl]-3H-[1,2,3]triazolo[4,5-b]pyridin-5-amine], for which the IC50 in assay [1] was in the range of 0.001 to 0.1 µM; in assay [2], 0.101 to 0.999 µM.

Turning to `Nc1cc(Cc2cnn(Cc3ccc(Cl)cc3)c2)c2nn[nH]c2n1` [Example 45, 7-((1-(4-Chlorobenzyl)-1H-pyrazol-4-yl)methyl)-3H-[1,2,3]triazolo[4,5-b]pyridin-5-amine], the IC50 in assay [1] and in assay [2] was 0.001 to 0.1 µM throughout.

Consider `Nc1cc(Cc2cnn(Cc3cccc(C4CCNCC4)c3)c2)c2nn[nH]c2n1` [Example 206, 7-[(1-{[3-(Piperidin-4-yl)phenyl]methyl}-1H-pyrazol-4-yl)methyl]-3H-[1,2,3]triazolo[4,5-b]pyridin-5-amine], for which the figures for the IC50 in assay [1] and in assay [2] were 0.001 to 0.1 µM and 0.101 to 0.999 µM, respectively.

For `Nc1cc(Cn2nc3cccc(Cl)c3n2)c2nn[nH]c2n1` [Example 164, 7-[(4-Chloro-2H-1,2,3-benzotriazol-2-yl)methyl]-3H-[1,2,3]triazolo[4,5-b]pyridin-5-amine], the IC50 in assay [1] and in assay [2] was 1 to 10 µM throughout.

With `Cc1ccnc(-n2cc(Cc3cc(N)nc4[nH]nnc34)cn2)c1` [Example 19, 7-((1-(4-Methylpyridin-2-yl)-1H-pyrazol-4-yl)methyl)-3H-[1,2,3]triazolo[4,5-b]pyridin-5-amine], the IC50 in assay [1] and in assay [2] was 0.001 to 0.1 µM each time.

Turning to `Nc1cc(Cc2cnn(Cc3cccc(-c4ccccc4)n3)c2)c2nn[nH]c2n1` [Example 123, 7-((1-((6-Phenylpyridin-2-yl)methyl)-1H-pyrazol-4-yl)methyl)-3H-[1,2,3]triazolo[4,5-b]pyridin-5-amine], the IC50 in assay [1] and in assay [2] was 0.001 to 0.1 µM each time.

Regarding `COc1ccc(Cn2cc(Cc3cc(N)nc4[nH]nnc34)cn2)cc1` [Example 141, 7-({1-[(4-Methoxyphenyl)methyl]-1H-pyrazol-4-yl}methyl)-3H-[1,2,3]triazolo[4,5-b]pyridin-5-amine], the IC50 in assay [1] and in assay [2] was 0.001 to 0.1 µM in each case.

Regarding `Cc1ccccc1Cn1cc(Cc2cc(N)nc3[nH]nnc23)cn1` [Example 43, 7-((1-(2-Methylbenzyl)-1H-pyrazol-4-yl)methyl)-3H-[1,2,3]triazolo[4,5-b]pyridin-5-amine], the figures for the IC50 in assay [1] and in assay [2] were 0.001 to 0.1 µM and 0.101 to 0.999 µM, respectively.

For `CN1CCc2cc(Cn3cc(Cc4cc(N)nc5[nH]nnc45)cn3)ccc2C1` [Example 159, -((1-((2-Methyl-1,2,3,4-tetrahydroisoquinolin-6-yl)methyl)-1H-pyrazol-4-yl)methyl)-3H-[1,2,3]triazolo[4,5-b]pyridin-5-amine], the figures for the IC50 in assay [1] and in assay [2] were 0.001 to 0.1 µM and 0.101 to 0.999 µM, respectively.

Consider `Nc1cc(Cc2cnn(Cc3cccc(N4CCNC5(CCC5)C4)c3)c2)c2nn[nH]c2n1` [Example 225, 7-({1-[(3-{5,8-Diazaspiro[3.5]nonan-8-yl}phenyl)methyl]-1H-pyrazol-4-yl}methyl)-3H-[1,2,3]triazolo[4,5-b]pyridin-5-amine], for which the IC50 in assay [1] was 0.101 to 0.999 µM; in assay [2], 0.001 to 0.1 µM.

Regarding `Nc1cc(Cc2cnn(Cc3ccc4c(c3)OCCO4)c2)c2nn[nH]c2n1` [Example 151, 7-{[1-(2,3-Dihydro-1,4-benzodioxin-6-ylmethyl)-1H-pyrazol-4-yl]methyl}-3H-[1,2,3]triazolo[4,5-b]pyridin-5-amine], the IC50 in assay [1] lay within 0.001 to 0.1 µM; in assay [2] it was 0.101 to 0.999 µM.
